The values that follow are results of earlier work, collected in PMC9881854 (bioRxiv, 2023).

The series has as its system mTOR.

For the compound `CO[C@H]1C[C@@H]2CC[C@@H](C)[C@@](O)(O2)C(=O)C(=O)N2CCCC[C@H]2C(=O)O[C@H]([C@H](C)C[C@@H]2CC[C@@H](O)[C@H](OC)C2)CC(=O)[C@H](C)/C=C(\C)[C@@H](O)[C@@H](OC)C(=O)[C@H](C)C[C@H](C)/C=C/C=C/C=C/1C` [rapamycin], the “binding of rapamycin by itself to mTOR” value is listed as “weak micromolar binder”.
